Assay results published in patent US8710085B2, “Pyrrolidine-1,2-dicarboxamide derivatives” (Novartis AG, priority 2008, dated 2014).
Like-named read-outs stand apart in the source and are kept apart here.

Experiments:
Assay type in all cases: biochemical
PI3Kδ = molecular target: T1, PI3Kδ (Homo sapiens, UniProt O00329); test: PI3K KinaseGlo assay, PI3Kδ; settings: 10 nM enzyme, 1 μM ATP, 30 mins, room temperature, read-out: PI3Kd/IC50
T1 construct: p85iSH2(461-568)-GGGGGG-p110δ(2-1044)-His; made in house; host or cells: baculovirus, Tn5 insect cells
T1 sequence (O00329 with tags, fused parts or gaps): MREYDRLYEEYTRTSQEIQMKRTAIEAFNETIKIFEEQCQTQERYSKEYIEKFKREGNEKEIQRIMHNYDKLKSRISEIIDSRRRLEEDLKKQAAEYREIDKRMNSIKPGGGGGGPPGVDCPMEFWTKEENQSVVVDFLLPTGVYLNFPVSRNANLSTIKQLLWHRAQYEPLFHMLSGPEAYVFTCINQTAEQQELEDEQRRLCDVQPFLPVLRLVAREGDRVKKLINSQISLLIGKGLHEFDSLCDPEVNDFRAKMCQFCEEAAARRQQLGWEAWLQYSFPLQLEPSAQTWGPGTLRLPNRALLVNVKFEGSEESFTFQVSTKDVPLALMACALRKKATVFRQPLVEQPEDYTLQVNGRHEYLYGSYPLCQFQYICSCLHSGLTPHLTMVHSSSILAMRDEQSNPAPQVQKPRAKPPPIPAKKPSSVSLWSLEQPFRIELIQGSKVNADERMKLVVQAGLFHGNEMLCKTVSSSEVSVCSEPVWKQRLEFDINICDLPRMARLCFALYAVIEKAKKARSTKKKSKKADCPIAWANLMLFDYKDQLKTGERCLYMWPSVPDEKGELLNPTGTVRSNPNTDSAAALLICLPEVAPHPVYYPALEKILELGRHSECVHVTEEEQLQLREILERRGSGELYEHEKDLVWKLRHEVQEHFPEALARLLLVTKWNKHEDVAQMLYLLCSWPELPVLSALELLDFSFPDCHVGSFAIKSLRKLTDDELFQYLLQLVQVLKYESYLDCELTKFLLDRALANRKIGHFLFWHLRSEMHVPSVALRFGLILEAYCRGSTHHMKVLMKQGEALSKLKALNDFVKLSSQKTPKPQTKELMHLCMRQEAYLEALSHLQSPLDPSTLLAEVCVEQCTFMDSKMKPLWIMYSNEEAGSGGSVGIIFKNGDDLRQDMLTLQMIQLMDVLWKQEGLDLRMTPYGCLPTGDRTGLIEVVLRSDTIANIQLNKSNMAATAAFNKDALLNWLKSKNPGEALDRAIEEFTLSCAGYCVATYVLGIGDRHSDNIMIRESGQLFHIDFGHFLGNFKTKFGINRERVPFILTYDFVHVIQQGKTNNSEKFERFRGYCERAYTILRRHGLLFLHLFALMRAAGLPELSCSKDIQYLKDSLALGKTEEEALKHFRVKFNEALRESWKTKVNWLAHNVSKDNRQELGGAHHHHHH

PI3Kγ = molecular target: T2, PI3Kγ (Homo sapiens, UniProt P48736, Q459R); test: PI3K KinaseGlo assay, PI3Kγ; settings: 150 nM enzyme, 1 μM ATP, 90 mins, room temperature, read-out: PI3Kg/IC50
T2 construct: p110γ(Δ143-[Met144-1102])-His; made in house; host or cells: Tn5 insect cells; construct from Roger Williams lab, MRC LMB
T2 sequence (P48736 with tags, fused parts or gaps Q459R): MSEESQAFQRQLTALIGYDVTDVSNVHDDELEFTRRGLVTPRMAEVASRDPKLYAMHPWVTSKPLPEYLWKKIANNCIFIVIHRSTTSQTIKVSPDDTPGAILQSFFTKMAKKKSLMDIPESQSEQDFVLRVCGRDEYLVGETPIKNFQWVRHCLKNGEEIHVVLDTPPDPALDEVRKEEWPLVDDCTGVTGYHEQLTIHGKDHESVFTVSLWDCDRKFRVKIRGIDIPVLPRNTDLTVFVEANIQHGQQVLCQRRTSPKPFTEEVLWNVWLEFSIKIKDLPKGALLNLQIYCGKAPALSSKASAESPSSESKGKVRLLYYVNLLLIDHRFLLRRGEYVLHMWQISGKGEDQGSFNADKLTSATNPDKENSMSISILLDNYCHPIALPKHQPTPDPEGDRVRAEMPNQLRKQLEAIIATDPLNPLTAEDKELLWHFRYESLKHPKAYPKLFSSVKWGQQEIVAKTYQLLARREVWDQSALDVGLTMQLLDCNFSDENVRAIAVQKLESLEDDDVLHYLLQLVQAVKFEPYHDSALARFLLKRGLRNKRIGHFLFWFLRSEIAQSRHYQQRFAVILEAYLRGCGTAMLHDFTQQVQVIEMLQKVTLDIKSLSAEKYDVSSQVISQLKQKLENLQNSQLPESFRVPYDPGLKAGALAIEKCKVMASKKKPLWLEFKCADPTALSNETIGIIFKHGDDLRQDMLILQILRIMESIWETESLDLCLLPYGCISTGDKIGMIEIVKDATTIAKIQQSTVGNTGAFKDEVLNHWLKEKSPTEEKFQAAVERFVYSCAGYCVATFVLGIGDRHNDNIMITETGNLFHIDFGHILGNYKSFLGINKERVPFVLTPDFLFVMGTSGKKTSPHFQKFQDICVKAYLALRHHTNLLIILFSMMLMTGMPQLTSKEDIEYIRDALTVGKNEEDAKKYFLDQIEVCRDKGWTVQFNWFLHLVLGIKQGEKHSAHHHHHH
Experimental: (§1) L-a-phosphatidylinositol (PI), provided as 10 mg/ml solution in methanol, was transferred into a glass tube and dried under nitrogen beam. It was then resuspended in 3% OctylGlucoside (OG) by vortexing and stored at 4° C. The KinaseGlo Luminescent Kinase Assay (Promega, Madison/WI, USA) is a homogeneous HTS method of measuring kinase activity by quantifying the amount of ATP remaining in solution following a kinase reaction.
5 μL of a mix of PI/OG with the PI3K subtype were added (Table 1). Kinase reactions were started by addition of 5 μl of ATP-mix containing in a final volume 10 μL 10 mM TRIS-HCl pH 7.5, 3 mM MgCl2, 50 mM NaCl, 0.05% CHAPS, 1 mM DTT and 1 μM ATP, and occurred at room temperature. […] The standard was used as a reference compound and included in all assay plates in the form of 16 dilution points in duplicate. […]
(§2) PI3Kα, PI3Kβ and PI3Kγ were purified in two chromatographic steps: immobilized metal affinity chromatography (IMAC) on a Ni sepharose resin (GE Healthcare) and gel filtration utilizing a Superdex 200 26/60 column (GE Healthcare). All buffers were chilled to 4° C. and lysis was performed chilled on ice. Column fractionation was performed at room temperature. All buffers used to purify PI3Kβ contained 0.05% Triton X100 in addition to what is described below.
(§3) The lysate was centrifuged at 45,000 g for 30 minutes, and the supernatant was loaded onto a pre-equilibrated IMAC column (3 mL resin/100 mL lysate). […] Protein was eluted with 20 mM Tris-Cl, pH 7.5, 0.5 M NaCl, 5% glycerol, 250 mM imidazole, 1 mM NaF, 0.1 μg/mL OAA, 5 mM BME, 1× Complete protease inhibitor cocktail—EDTA-free. Pertinent fractions were analyzed by SDS-PAGE and pooled accordingly. The protein was further purified by gel filtration on a Superdex 200 26/60 column equilibrated in 20 mM Tris-Cl, pH 7.5, 0.5 M NaCl, 5% glycerol, 1 mM NaF, 5 mM DTT, 1× Complete protease inhibitor cocktail—EDTA-free. Pertinent fractions were analyzed by SDS-PAGE and pooled accordingly. An equal volume of Dialysis Buffer (20 mM Tris-Cl, pH 7.5, 500 mM NaCl, 50% glycerol, 5 mM NaF, 5 mM DTT) was added to the pool and than dialyzed against Dialysis Buffer two changes (one change overnight). Protein was stored at −20° C.

PI3Kβ = molecular target: T3, PI3Kβ (Homo sapiens, UniProt P42338); test: PI3K KinaseGlo assay, PI3Kβ
T3 construct: p110β(2-1070)-His; made in house; host or cells: baculovirus, Tn5 insect cells
T3 sequence (P42338 with tags, fused parts or gaps): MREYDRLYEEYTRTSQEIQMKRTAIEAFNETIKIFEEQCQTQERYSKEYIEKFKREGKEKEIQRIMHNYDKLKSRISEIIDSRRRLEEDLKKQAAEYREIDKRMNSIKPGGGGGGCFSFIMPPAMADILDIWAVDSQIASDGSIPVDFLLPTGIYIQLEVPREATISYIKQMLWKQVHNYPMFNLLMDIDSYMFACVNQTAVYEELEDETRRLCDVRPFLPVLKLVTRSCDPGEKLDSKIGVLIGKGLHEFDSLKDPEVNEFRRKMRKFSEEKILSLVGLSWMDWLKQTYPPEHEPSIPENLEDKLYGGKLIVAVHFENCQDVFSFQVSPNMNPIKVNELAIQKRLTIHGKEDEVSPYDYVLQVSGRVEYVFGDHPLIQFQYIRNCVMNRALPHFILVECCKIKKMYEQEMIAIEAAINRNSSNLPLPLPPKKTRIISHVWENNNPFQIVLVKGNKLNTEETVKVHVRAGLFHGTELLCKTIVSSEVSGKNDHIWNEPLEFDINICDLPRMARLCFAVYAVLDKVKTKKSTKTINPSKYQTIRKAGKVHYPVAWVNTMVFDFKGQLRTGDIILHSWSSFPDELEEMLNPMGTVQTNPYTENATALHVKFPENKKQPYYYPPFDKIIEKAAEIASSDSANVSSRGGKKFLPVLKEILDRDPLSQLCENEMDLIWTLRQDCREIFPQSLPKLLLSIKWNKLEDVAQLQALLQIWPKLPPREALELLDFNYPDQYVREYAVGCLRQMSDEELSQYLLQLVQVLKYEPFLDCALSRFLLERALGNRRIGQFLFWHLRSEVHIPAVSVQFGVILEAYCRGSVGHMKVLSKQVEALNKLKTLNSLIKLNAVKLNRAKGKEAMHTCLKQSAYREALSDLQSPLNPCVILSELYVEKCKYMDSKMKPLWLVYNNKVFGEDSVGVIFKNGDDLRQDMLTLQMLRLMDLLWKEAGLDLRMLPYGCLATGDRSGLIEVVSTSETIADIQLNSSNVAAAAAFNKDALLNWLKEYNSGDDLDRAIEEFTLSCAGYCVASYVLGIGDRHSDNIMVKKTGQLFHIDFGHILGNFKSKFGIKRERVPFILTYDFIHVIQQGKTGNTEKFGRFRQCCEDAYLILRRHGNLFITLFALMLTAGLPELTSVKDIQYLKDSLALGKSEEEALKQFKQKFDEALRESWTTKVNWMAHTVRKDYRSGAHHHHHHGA
Experimental: as §1, with “PI3K KinaseGlo assay: […] of compound dilutions were dispensed onto black 384-well low volume Non Binding Styrene (NBS) plates (Costar Cat. No. NBS#3676). L-a-phosphatidylinositol” for “L-a-phosphatidylinositol”
5 μL of a mix of PI/OG with the PI3K subtype were added (Table 1). Kinase reactions were started by addition of 5 μl of ATP-mix containing in a final volume 10 μL 10 mM TRIS-HCl pH 7.5, 3 mM MgCl2, 50 mM NaCl, 0.05% CHAPS, 1 mM DTT and 1 μM ATP, and occurred at room temperature. […] The standard was used as a reference compound and included in all assay plates in the form of 16 dilution points in duplicate.
The PI3Kα, PI3Kβ and PI3Kδ constructs are fusion of p85α iSH2 domain and the respective p110 isoforms. The p85α fragment and p110 isoform genes were generated by PCR from first strand cDNA generated by RT-PCR from commercial RNA from placenta, testis and brain as described below. The PI3Kγ construct was obtained from Roger Williams lab, MRC Laboratory of Molecular Biology, Cambridge, UK (November, 2003) and is described (Pacold, Michael E.; Suire, Sabine; Perisic, Olga; Lara-Gonzalez, Samuel; Davis, Colin T.; Walker, Edward H.; Hawkins, Phillip T.; Stephens, Len; Eccleston, John F.; Williams, Roger L. Crystal structure and functional analysis of Ras binding to its effector phosphoinositide 3-kinase gamma. Cell (2000), 103(6), 931-943).
BV949: PCR products for the inter SH2 domain (iSH2) of the p85 PI3Kα, PI13Kβ and PI3Kδ subunit and for the full-length p110β subunit were generated and fused by overlapping PCR. […] The p11013 fragment was obtained by PCR using as template a p110β clone (from unknown source that was sequence verified) using primers gwG130-p04 (5′-[…]-[…]-3′) (SEQ ID NO: 9) which contains linker sequences and the 5′ end of p110β and gwG130-p06 (5′-[…]-[…]-3′) (SEQ ID NO: 10) which contains sequences of the 3′ end of p110-β fused to a Histidine tag. […] This final product was recombined in a Gateway (Invitrogen) […] into the donor vector pDONR201 (Invitrogen) to generate the ORF253 entry clone. This clone was verified by sequencing and used in a Gateway LR reaction (Invitrogen) to transfer the insert into the Gateway adapted pBlueBac4.5 (Invitrogen) vector for generation of the baculovirus expression vector LR280.
as §2
as §3, with “accordingly.” for “accordingly. An equal volume of Dialysis Buffer (20 mM Tris-Cl, pH 7.5, 500 mM NaCl, 50% glycerol, 5 mM NaF, 5 mM DTT) was added to the pool and than dialyzed against Dialysis Buffer two changes (one change overnight). Protein was stored at −20° C.”

PI3Kα = molecular target: T4, PI3Kα (Homo sapiens, UniProt P42336); test: PI3K KinaseGlo assay, PI3Kα
T4 construct: p110α(21-1068)-His; made in house; host or cells: baculovirus, Tn5 insect cells
T4 sequence (P42336 with tags, fused parts or gaps): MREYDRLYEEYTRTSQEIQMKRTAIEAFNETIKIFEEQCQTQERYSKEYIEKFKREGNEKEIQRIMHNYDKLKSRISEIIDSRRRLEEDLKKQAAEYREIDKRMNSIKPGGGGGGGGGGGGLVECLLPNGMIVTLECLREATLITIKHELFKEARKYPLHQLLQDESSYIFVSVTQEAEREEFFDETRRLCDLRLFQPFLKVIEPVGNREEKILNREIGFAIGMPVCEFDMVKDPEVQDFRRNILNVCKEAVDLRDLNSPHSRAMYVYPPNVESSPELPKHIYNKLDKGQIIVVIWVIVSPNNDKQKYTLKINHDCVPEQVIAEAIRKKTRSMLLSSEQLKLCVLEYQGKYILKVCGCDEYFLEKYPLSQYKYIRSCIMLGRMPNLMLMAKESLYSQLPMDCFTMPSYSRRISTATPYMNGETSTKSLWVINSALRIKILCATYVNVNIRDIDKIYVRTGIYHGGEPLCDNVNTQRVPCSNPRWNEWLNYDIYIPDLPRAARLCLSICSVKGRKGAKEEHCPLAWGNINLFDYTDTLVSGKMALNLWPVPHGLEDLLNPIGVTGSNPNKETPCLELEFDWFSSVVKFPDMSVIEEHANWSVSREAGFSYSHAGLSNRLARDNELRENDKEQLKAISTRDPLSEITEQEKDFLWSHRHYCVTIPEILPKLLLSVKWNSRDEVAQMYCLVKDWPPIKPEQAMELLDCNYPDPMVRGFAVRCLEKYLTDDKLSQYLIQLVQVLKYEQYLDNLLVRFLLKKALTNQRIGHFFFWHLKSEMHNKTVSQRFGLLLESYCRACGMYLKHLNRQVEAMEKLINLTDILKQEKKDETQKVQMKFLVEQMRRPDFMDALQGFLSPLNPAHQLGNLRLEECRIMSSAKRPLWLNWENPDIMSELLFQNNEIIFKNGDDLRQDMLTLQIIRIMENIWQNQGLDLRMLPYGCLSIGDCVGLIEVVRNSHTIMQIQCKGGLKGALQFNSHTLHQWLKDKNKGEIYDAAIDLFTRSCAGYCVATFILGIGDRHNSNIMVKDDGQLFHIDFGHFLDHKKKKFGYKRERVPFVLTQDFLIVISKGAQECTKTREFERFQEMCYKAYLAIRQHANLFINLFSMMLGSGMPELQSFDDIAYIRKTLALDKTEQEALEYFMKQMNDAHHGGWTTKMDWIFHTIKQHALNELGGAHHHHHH

[1] = KinaseGlo, 25 nM enzyme, 1 μM ATP, 30 mins, room temperature, read-out: PI3Kb/IC50
[2] = KinaseGlo, 10 nM enzyme, 1 μM ATP, 30 mins, room temperature, read-out: PI3Ka/IC50
[3] = KinaseGlo, 10 nM enzyme, 1 μM ATP, 30 mins, room temperature

Cc1nc(NC(=O)N2CCC[C@H]2C(N)=O)sc1-c1ccnc(C(C)(C)C)c1 [Example 1, (S)-Pyrrolidine-1,2-dicarboxylic acid 2-amide 1-{[5-(2-tert-butyl-pyridin-4-yl)-4-methyl-thiazol-2-yl]-amide}]
IC50 (PI3Kδ): 971 nM
IC50 (PI3Kγ): 680 nM
IC50 (PI3Kβ; [1]): 4430 nM

Cc1nc(NC(=O)N2CCC[C@H]2C(N)=O)sc1-c1ccnc(-c2ccccc2F)c1 [Example 3, (S)-Pyrrolidine-1,2-dicarboxylic acid 2-amide 1-({5-[2-(2-fluoro-phenyl)-pyridin-4-yl]-4-methyl-thiazol-2-yl}-amide)]
IC50 (PI3Kδ): 432 nM
IC50 (PI3Kα; [2]): 67 nM
IC50 (PI3Kγ): 362 nM
IC50 (PI3Kβ; [1]): 2300 nM

CC(C)(c1cc(-c2cnc(NC(=O)N3CCC[C@H]3C(N)=O)s2)ccn1)C(F)(F)F [Example 12, (S)-Pyrrolidine-1,2-dicarboxylic acid 2-amide 1-({5-[2-(2,2,2-trifluoro-1,1-dimethyl-ethyl)-pyridin-4-yl]-thiazol-2-yl}-amide)]
IC50 (PI3Kδ): 197 nM
IC50 (PI3Kα): 10 nM
IC50 (PI3Kγ): 352 nM
IC50 (PI3Kβ; [1]): 3870 nM

NC(=O)[C@@H]1CCCN1C(=O)Nc1ncc(-c2ccnc(C3(C(F)(F)F)CCC3)c2)s1 [Example 13, (S)-Pyrrolidine-1,2-dicarboxylic acid 2-amide 1-({5-[2-(1-trifluoromethyl-cyclobutyl)-pyridin-4-yl]-thiazol-2-yl}-amide)]
IC50 (PI3Kδ): 161 nM
IC50 (PI3Kγ): 183 nM
IC50 (PI3Kβ; [1]): 4490 nM

Cc1nc(NC(=O)N2CCC[C@H]2C(N)=O)sc1-c1ccnc(C2(C#N)CC2)c1 [Example 18, (S)-Pyrrolidine-1,2-dicarboxylic acid 2-amide 1-({5-[2-(1-cyano-cyclopropyl)pyridin-4-yl]-4-methyl-thiazol-2-yl}-amide)]
IC50 (PI3Kδ): 538 nM
PI3Ka/IC50 (PI3Kα; [3]): 0.019 umol I-1
IC50 (PI3Kγ): 612 nM
IC50 (PI3Kβ; [1]): 4140 nM

COc1ccc(C(C)(C)c2cc(-c3sc(NC(=O)N4CCC[C@H]4C(N)=O)nc3C)ccn2)cc1 [Example 27, (S)-Pyrrolidine-1,2-dicarboxylic acid 2-amide 1-[(5-{2-[1-(4-methoxy-phenyl)-1-methyl-ethyl]-pyridin-4-yl}-4-methyl-thiazol-2-yl)-amide]]
IC50 (PI3Kδ): 271 nM
IC50 (PI3Kα; [2]): 81 nM
IC50 (PI3Kγ): 1560 nM
IC50 (PI3Kβ; [1]): 5200 nM

COc1ccc(C2(c3cc(-c4sc(NC(=O)N5CCC[C@H]5C(N)=O)nc4C)ccn3)CC2)cc1 [Example 29, (S)-Pyrrolidine-1,2-dicarboxylic acid 2-amide 1-[(5-{2-[1-(4-methoxy-phenyl)-cyclopropyl]-pyridin-4-yl}-4-methyl-thiazol-2-yl)-amide]]
IC50 (PI3Kδ): 804 nM
IC50 (PI3Kα; [2]): 56 nM
IC50 (PI3Kγ): 684 nM
IC50 (PI3Kβ; [1]): 6170 nM

CC(C)(c1cc(-c2sc(NC(=O)N3CCC[C@H]3C(N)=O)nc2Cl)ccn1)C(F)(F)F [Example 37, (S)-Pyrrolidine-1,2-dicarboxylic acid 2-amide 1-({4-chloro-5-[2-(2,2,2-trifluoro-1,1-dimethyl-ethyl)-pyridin-4-yl]-thiazol-2-yl}-amide)]
IC50 (PI3Kδ): 386 nM
PI3Ka/IC50 (PI3Kα; [3]): 0.039 umol I-1
IC50 (PI3Kγ): 4450 nM
IC50 (PI3Kβ; [1]): 5520 nM

Cc1nc(NC(=O)N2CCC[C@H]2C(N)=O)sc1-c1ccnc(C2(C)CC2)n1 [Example 42, (S)-Pyrrolidine-1,2-dicarboxylic acid 2-amide 1-({4-methyl-5-[2-(1-methylcyclopropyl)-pyrimidin-4-yl]-thiazol-2-yl}-amide)]
IC50 (PI3Kδ): 289 nM
IC50 (PI3Kγ): 858 nM
IC50 (PI3Kβ): 3170 nM

Cc1nc(NC(=O)N2CCC[C@H]2C(N)=O)sc1-c1ccnc(Cc2c(Cl)cccc2Cl)n1 [Example 47, (S)-Pyrrolidine-1,2-dicarboxylic acid 2-amide 1-({5-[2-(2,6-dichloro-benzyl)pyrimidin-4-yl]-4-methyl-thiazol-2-yl}-amide)]
IC50 (PI3Kδ): 156 nM
IC50 (PI3Kα; [2]): 94 nM
IC50 (PI3Kγ): 1870 nM
IC50 (PI3Kβ; [1]): 2900 nM

Cc1nc(NC(=O)N2CCC[C@H]2C(N)=O)sc1-c1ccnc(-c2ccccc2F)n1 [Example 51, (S)-Pyrrolidine-1,2-dicarboxylic acid 2-amide 1-({5-[2-(2-fluoro-phenyl)pyrimidin-4-yl]-4-methyl-thiazol-2-yl}-amide)]
IC50 (PI3Kδ): 690 nM
IC50 (PI3Kα; [2]): 113 nM
IC50 (PI3Kγ): 3480 nM
IC50 (PI3Kβ; [1]): 8840 nM

Cc1nc(NC(=O)N2CCC[C@H]2C(N)=O)sc1-c1ccnc(C2CC2)n1 [Example 59, (S)-Pyrrolidine-1,2-dicarboxylic acid 2-amide 1-({4-methyl-5-[2-cyclopropyl-pyrimidin-4-yl]thiazol-2-yl-}-amide)]
IC50 (PI3Kδ): 881 nM
IC50 (PI3Kα; [2]): 64 nM
IC50 (PI3Kγ): 917 nM
IC50 (PI3Kβ; [1]): 3500 nM

CCN(CC)c1nccc(-c2sc(NC(=O)N3CCC[C@H]3C(N)=O)nc2C)n1 [Example 63, (S)-Pyrrolidine-1,2-dicarboxylic acid 2-amide 1-{[5-(2-diethylamino-pyrimidin-4-yl)-4-methyl-thiazol-2-yl]-amide}]
IC50 (PI3Kδ): 98 nM
PI3Ka/IC50 (PI3Kα; [3]): 0.016 umol I-1
IC50 (PI3Kγ): 790 nM
IC50 (PI3Kβ; [1]): 1200 nM
